Holding throughout (assay type): physicochemical
Series [1] in a line: Physical stability upon grinding (XRPD). Conditions: ground manually 5 minutes in a mortar. The protocol: Form CSIII sample was grounded manually for 5 minutes in a mortar. Crystalline forms before and after grinding were checked by XRPD.
Series [2] is described as follows: Bulk and tapped density. Conditions: for Bulk density: about 500 mg powder in 5-mL cylinder; for Tapped density: tapped 1250 times. How it is done:
About 500 mg of powder were added into a 5-mL measuring cylinder and bulk volume was recorded. Then the powder was tapped for 1250 times by ZS-2E tap density tester to make it in the tightest state and the tapped volume was recorded. The bulk density and tapped density were calculated.

A short description of series [3]: Physical stability under pressure (tableting, XRPD). The following applies: compressed under 5 kN, 10 kN and 20 kN. From the text:
A certain amount of Form CSIII was compressed into tablets under 5 kN, 10 kN and 20 kN with suitable tableting die. Crystalline forms before and after tableting were checked by XRPD.

Series [4] in a line: Kinetic solubility in SGF, FeSSIF and FaSSIF (HPLC). How it is done:
When solubility test is used to predict the in vivo performance of a drug, it is critical to simulate in vivo conditions as closely as possible. Simulated gastric fluid (SGF), Fed-state simulated intestinal fluid (FeSSIF) and Fasted-state simulated intestinal fluid (FaSSIF) can be used to simulate the conditions in vivo and predict the effects of eating, thus solubilities in these media are closer to those in vivo.
15-20 mg of Form CSIII of the present disclosure and 15-20 mg of Form A were suspended into 2.5 mL of SGF, 2.5 mL of FeSSIF, and 2.5 mL of FaSSIF to get suspensions. After equilibrated for 1 h and 4 h, concentrations of these solutions were measured by HPLC.

Series [5] in a line: Physical stability upon humidity change (DVS, XRPD). The following applies: cycle of 0%-95%-0%RH at 25° C. How it is done:
Dynamic Vapor Sorption (DVS) is measured via an SMS (Surface Measurement Systems Ltd.) intrinsic DVS instrument. Its control software is DVS- Intrinsic control software, and its analysis software is DVS-Intrinsic Analysis software. Typical Parameters for DVS test are as follows: • Temperature: 25° C. • Gas and flow rate: N2, 200 mL/min • RH range: 0% RH to 95% RH
Dynamic vapor sorption (DVS) was applied to test the stability of Form CSIII. A certain amount of Form CSIII was tested in a cycle of 0%-95%-0%RH at 25° C.

Series [6] in a line: Stability of Form CSIII on storage (XRPD, HPLC purity). The following applies: for Crystalline form after storage: XRPD. The protocol:
Approximately 5 mg of Form CSIII samples was stored under different conditions of 25° C./60%RH, 40° C./75%RH, and 60° C./75%RH. Crystalline form and chemical purity were checked by XRPD and HPLC, respectively.

The mark [7] stands for this setting: applicant's characterisation of repeated prior-art form.

From patent US20230049130A1, “DEUCRAVACITINIB CRYSTAL FORM, PREPARATION METHOD THEREFOR AND USE THEREOF” (CRYSTAL PHARMACEUTICAL (SUZHOU) CO., LTD., priority 2020, published 2023) come the findings set out here.

Take `[2H]C([2H])([2H])NC(=O)c1nnc(NC(=O)C2CC2)cc1Nc1cccc(-c2ncn(C)n2)c1OC` [Form CSIII, 6-(cyclopropanecarboxamido)-4-((2-methoxy-3-(1-methyl-1H-1,2,4-triazol-3-yl)phenyl)amino)-N-(methyl-d3) pyridazine-3-carboxamide]: the “Crystalline state after grinding” value in series [1] was “does not change”. The molecule further came in with a Bulk density in series [2] of 0.4276 g/mL. The molecule also had a Tapped density in series [2] of 0.5987 g/mL. The “Crystalline state after tableting” value in series [3] was “does not change”. Moreover, the Concentration was found to be 49 µg/mL in series [4] (FaSSIF, equilibrated 1 hour); 55.7 µg/mL in series [4] (FaSSIF, equilibrated 4 hours); 193.6 µg/mL in series [4] (FeSSIF, equilibrated 1 hour); 179.3 µg/mL in series [4] (FeSSIF, equilibrated 4 hours); 1582.4 µg/mL in series [4] (SGF, equilibrated 1 hour); 1296.8 µg/mL in series [4] (SGF, equilibrated 4 hours). Also, the “Solubility relative to that of Form A” value in series [4] (FaSSIF, equilibrated 1 hour) amounted to 3.6 times; in series [4] (FaSSIF, equilibrated 4 hours), 4.1 times. For the same molecule, the “Crystalline state after DVS test” value in series [5] is listed as “does not change”. Further, the results for the “Time stable on storage” value in series [6] (25° C./60% RH), in series [6] (40° C./75% RH) and in series [6] (60° C./75% RH) were “at least 3 months”, “at least 3 months” and “at least one month”, respectively. Also, the “Crystalline form after storage” value in series [6] (25° C./60%RH (open), 3 months) is recorded as “Form CSIII”; in series [6] (25° C./60%RH (sealed), 3 months), “Form CSIII”; in series [6] (40° C./75%RH (open), 3 months) it was “Form CSIII”; in series [6] (40° C./75%RH (sealed), 3 months), “Form CSIII”; in series [6] (60° C./75%RH (open), one month), “Form CSIII”; in series [6] (60° C./75%RH (sealed), one month) it was “Form CSIII”. Further, the “Change in chemical purity during storage” value in series [6] (60° C./75% RH, one month, open condition, HPLC) is listed as 0.07%.

In series [2], `[2H]C([2H])([2H])NC(=O)c1nnc(NC(=O)C2CC2)cc1Nc1cccc(-c2ncn(C)n2)c1OC` [Form A, 6-(cyclopropanecarboxamido)-4-((2-methoxy-3-(1-methyl-1H-1,2,4-triazol-3-yl)phenyl)amino)-N-(methyl-d3) pyridazine-3-carboxamide, reference compound] gave a Bulk density of 0.3899 g/mL. In addition, in series [2] (setting [7]), the “Density (in words)” value was “low density”. In series [2], this molecule yielded a Tapped density of 0.5199 g/mL. Further, the Concentration stood at 13.5 µg/mL in series [4] (FaSSIF, equilibrated 1 hour); 13.6 µg/mL in series [4] (FaSSIF, equilibrated 4 hours); 82.3 µg/mL in series [4] (FeSSIF, equilibrated 1 hour); 68.8 µg/mL in series [4] (FeSSIF, equilibrated 4 hours); 1114.1 µg/mL in series [4] (SGF, equilibrated 1 hour); 617.2 µg/mL in series [4] (SGF, equilibrated 4 hours). Also, the “Solubility (in words)” value in series [4] (setting [7]) is “poor solubility”.
